Source: patent US20120264735A1 (priority 2009, published 2012)

Biological target: T1, c-Met kinase (recombinant c-Met) (Homo sapiens, UniProt P08581)
T1 construct: 0.27 nM recombinant c-Met
Assay: In vitro kinase assay I (homogeneous time-resolved fluorescence tyrosine kinase assay)
Assay type: biochemical
In short: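 Biotinylated peptide (0.5 μM) phosphorylated by 0.2 nM recombinant c-Met with 50 μM MgATP, 60 min at room temperature, pH 7.4, 5% DMSO. EDTA stop; HTRF read with Eu-anti-phosphotyrosine antibody and streptavidin-APC. IC50 from 4-parameter logistic fit.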

T1 sequence (P08581 25-1390): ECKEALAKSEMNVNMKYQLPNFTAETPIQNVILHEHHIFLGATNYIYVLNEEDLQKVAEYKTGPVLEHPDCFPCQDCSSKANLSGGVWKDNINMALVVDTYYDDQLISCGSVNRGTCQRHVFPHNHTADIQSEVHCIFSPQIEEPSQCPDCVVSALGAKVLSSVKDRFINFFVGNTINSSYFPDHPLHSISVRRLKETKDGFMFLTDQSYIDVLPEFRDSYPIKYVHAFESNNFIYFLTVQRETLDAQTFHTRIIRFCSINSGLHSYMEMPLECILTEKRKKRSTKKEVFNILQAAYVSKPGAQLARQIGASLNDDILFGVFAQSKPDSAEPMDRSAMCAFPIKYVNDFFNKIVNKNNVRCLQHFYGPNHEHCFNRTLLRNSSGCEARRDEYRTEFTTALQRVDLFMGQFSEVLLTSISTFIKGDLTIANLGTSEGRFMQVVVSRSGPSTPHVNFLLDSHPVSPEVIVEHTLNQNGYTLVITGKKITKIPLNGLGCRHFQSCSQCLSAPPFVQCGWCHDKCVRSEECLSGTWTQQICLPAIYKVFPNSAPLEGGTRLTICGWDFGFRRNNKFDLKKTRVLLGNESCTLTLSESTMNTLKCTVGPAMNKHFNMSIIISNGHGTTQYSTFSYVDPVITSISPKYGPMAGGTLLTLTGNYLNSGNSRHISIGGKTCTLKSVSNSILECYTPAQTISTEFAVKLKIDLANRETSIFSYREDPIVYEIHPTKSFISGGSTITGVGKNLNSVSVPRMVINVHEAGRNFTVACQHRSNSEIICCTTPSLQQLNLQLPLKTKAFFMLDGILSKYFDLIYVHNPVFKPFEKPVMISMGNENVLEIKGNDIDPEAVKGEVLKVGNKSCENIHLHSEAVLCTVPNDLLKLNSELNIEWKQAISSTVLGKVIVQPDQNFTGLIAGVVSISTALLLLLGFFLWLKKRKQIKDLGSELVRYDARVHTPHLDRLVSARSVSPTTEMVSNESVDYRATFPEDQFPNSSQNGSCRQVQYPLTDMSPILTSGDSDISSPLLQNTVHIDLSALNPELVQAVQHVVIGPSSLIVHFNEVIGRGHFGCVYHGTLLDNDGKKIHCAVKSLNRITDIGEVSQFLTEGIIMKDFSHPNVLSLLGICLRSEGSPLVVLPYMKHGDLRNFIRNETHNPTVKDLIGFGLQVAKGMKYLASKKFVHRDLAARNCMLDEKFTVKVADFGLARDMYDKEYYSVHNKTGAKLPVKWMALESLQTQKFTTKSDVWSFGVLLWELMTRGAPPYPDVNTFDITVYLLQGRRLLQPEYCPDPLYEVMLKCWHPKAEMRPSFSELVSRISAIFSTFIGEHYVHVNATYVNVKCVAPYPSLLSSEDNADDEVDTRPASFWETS

Row | IC50 [µM] | Structure (SMILES)
1 | < 0.1 | CCCn1cnc(-c2cccc(Cc3nn(-c4cccc(C#N)c4)ccc3=O)c2)n1 [Example 85, 3-{4-oxo-3-[3-(1-propyl-1H-1,2,4-triazol-3-yl)benzyl]pyridazin-1(4H)-yl}benzonitrile]
2 | < 0.1 | CCn1cc(-n2ccc(=O)c(Cc3cccc(-c4ncn(CC)n4)c3)n2)cn1 [Example 86, 1-(1-ethyl-1H-pyrazol-4-yl)-3-[3-(1-ethyl-1H-1,2,4-triazol-3-yl)benzyl]pyridazin-4(1H)-one]
3 | < 0.1 | CCCn1cnc(-c2cccc(Cc3nn(-c4cnn(CC)c4)ccc3=O)c2)n1 [Example 87, 1-(1-ethyl-1H-pyrazol-4-yl)-3-[3-(1-propyl-1H-1,2,4-triazol-3-yl)benzyl]pyridazin-4(1H)-one]
4 | 0.1 to 1 | CCn1cnc(-c2cccc(Cc3nn(-c4cnn(CCOCc5ccccc5)c4)ccc3=O)c2)n1 [Example 88, 1-{1-[2-(benzyloxy)ethyl]-1H-pyrazol-4-yl}-3-[3-(1-ethyl-1H-1,2,4-triazol-3-yl)benzyl]pyridazin-4(1H)-one]
5 | 0.1 to 1 | CCCn1cnc(-c2cccc(Cc3nn(-c4cnn(CCOCc5ccccc5)c4)ccc3=O)c2)n1 [Example 89, 1-{1-[2-(benzyloxy)ethyl]-1H-pyrazol-4-yl}-3-[3-(1-propyl-1H-1,2,4-triazol-3-yl)benzyl]pyridazin-4(1H)-one]
6 | 0.1 to 1 | CC(C)COC(=O)Nc1cccc(Cc2nn(-c3cnn(C4CCOCC4)c3)ccc2=O)c1 [Example 90, 2-methylpropyl [3-({4-oxo-1-[1-(tetrahydro-2H-pyran-4-yl)-1H-pyrazol-4-yl]-1,4-dihydropyridazin-3-yl}methyl)phenyl]carbamate]
7 | 0.1 to 1 | CCOC(=O)Nc1cccc(Cc2nn(-c3cnn(C4CCOCC4)c3)ccc2=O)c1 [Example 91, ethyl [3-({4-oxo-1-[1-(tetrahydro-2H-pyran-4-yl)-1H-pyrazol-4-yl]-1,4-dihydropyridazin-3-yl}methyl)phenyl]carbamate]
8 | 0.1 to 1 | CCOC(=O)Nc1cccc(Cc2nn(-c3cnn(CC(C)C)c3)ccc2=O)c1 [Example 92, ethyl [3-({1-[1-(2-methylpropyl)-1H-pyrazol-4-yl]-4-oxo-1,4-dihydropyridazin-3-yl}methyl)phenyl]carbamate]
9 | < 0.1 | CC(C)COC(=O)Nc1cccc(Cc2nn(-c3cnn(CC(F)(F)F)c3)ccc2=O)c1 [Example 93, 2-methylpropyl [3-({4-oxo-1-[1-(2,2,2-trifluoroethyl)-1H-pyrazol-4-yl]-1,4-dihydropyridazin-3-yl}methyl)phenyl]carbamate]
10 | 0.1 to 1 | CC(C)COC(=O)Nc1cccc(Cc2nn(-c3cnn(CC(C)C)c3)ccc2=O)c1 [Example 94, 2-methylpropyl [3-({1-[1-(2-methylpropyl)-1H-pyrazol-4-yl]-4-oxo-1,4-dihydropyridazin-3-yl}methyl)phenyl]carbamate]
11 | < 0.1 | COc1cnc(-c2cccc(Cc3nn(-c4cnn(CC(C)C)c4)ccc3=O)c2)nc1 [Example 95, 3-[3-(5-methoxypyrimidin-2-yl)benzyl]-1-[1-(2-methylpropyl)-1H-pyrazol-4-yl]pyridazin-4(1H)-one]
12 | 0.1 to 1 | CC(C)Cn1cc(-n2ccc(=O)c(Cc3cccc(NC(=O)OCCN4CCOCC4)c3)n2)cn1 [Example 96, 2-morpholin-4-ylethyl [3-({1-[1-(2-methylpropyl)-1H-pyrazol-4-yl]-4-oxo-1,4-dihydropyridazin-3-yl}methyl)phenyl]carbamate]
13 | 0.1 to 1 | CCOC(=O)Nc1cccc(Cc2nn(-c3cnn(CC4CCOCC4)c3)ccc2=O)c1 [Example 100, ethyl [3-({4-oxo-1-[1-(tetrahydro-2H-pyran-4-ylmethyl)-1H-pyrazol-4-yl]-1,4-dihydropyridazin-3-yl}methyl)phenyl]carbamate]
14 | 0.1 to 1 | CCCOC(=O)Nc1cccc(Cc2nn(-c3cnn(CC4CCOCC4)c3)ccc2=O)c1 [Example 101, propyl [3-({4-oxo-1-[1-(tetrahydro-2H-pyran-4-ylmethyl)-1H-pyrazol-4-yl]-1,4-dihydropyridazin-3-yl}methyl)phenyl]carbamate]
15 | 0.1 to 1 | CC(C)COC(=O)Nc1cccc(Cc2nn(-c3cnn(CC4CCOCC4)c3)ccc2=O)c1 [Example 102, 2-methylpropyl [3-({4-oxo-1-[1-(tetrahydro-2H-pyran-4-ylmethyl)-1H-pyrazol-4-yl]-1,4-dihydropyridazin-3-yl}methyl)phenyl]carbamate]
16 | < 0.1 | CCOC(=O)Nc1cccc(Cc2nn(-c3cnn(C(C)C)c3)ccc2=O)c1 [Example 103, ethyl [3-({1-[1-(1-methylethyl)-1H-pyrazol-4-yl]-4-oxo-1,4-dihydropyridazin-3-yl}methyl)phenyl]carbamate]
17 | < 0.1 | CCCOC(=O)Nc1cccc(Cc2nn(-c3cnn(C(C)C)c3)ccc2=O)c1 [Example 104, propyl [3-({1-[1-(1-methylethyl)-1H-pyrazol-4-yl]-4-oxo-1,4-dihydropyridazin-3-yl}methyl)phenyl]carbamate]
18 | < 0.1 | CC(C)COC(=O)Nc1cccc(Cc2nn(-c3cnn(C(C)C)c3)ccc2=O)c1 [Example 105, 2-methylpropyl [3-({1-[1-(1-methylethyl)-1H-pyrazol-4-yl]-4-oxo-1,4-dihydropyridazin-3-yl}methyl)phenyl]carbamate]
19 | 0.1 to 1 | CCOC(=O)Nc1cccc(Cc2nn(-c3cnn(CCOC)c3)ccc2=O)c1 [Example 106, ethyl [3-({1-[1-(2-methoxyethyl)-1H-pyrazol-4-yl]-4-oxo-1,4-dihydropyridazin-3-yl}methyl)phenyl]carbamate]
20 | 0.1 to 1 | CCCOC(=O)Nc1cccc(Cc2nn(-c3cnn(CCOC)c3)ccc2=O)c1 [Example 107, propyl [3-({1-[1-(2-methoxyethyl)-1H-pyrazol-4-yl]-4-oxo-1,4-dihydropyridazin-3-yl}methyl)phenyl]carbamate]
21 | < 0.1 | COCCn1cc(-n2ccc(=O)c(Cc3cccc(NC(=O)OCC(C)C)c3)n2)cn1 [Example 108, 2-methylpropyl [3-({1-[1-(2-methoxyethyl)-1H-pyrazol-4-yl]-4-oxo-1,4-dihydropyridazin-3-yl}methyl)phenyl]carbamate]
22 | < 0.1 | CCOC(=O)Nc1cccc(Cc2nn(-c3cnn(CC)c3)ccc2=O)c1 [Example 109, ethyl (3-{[1-(1-ethyl-1H-pyrazol-4-yl)-4-oxo-1,4-dihydropyridazin-3-yl]methyl}phenyl)carbamate]
23 | < 0.1 | CCn1cc(-n2ccc(=O)c(Cc3cccc(NC(=O)OCC(C)C)c3)n2)cn1 [Example 110, 2-methylpropyl (3-{[1-(1-ethyl-1H-pyrazol-4-yl)-4-oxo-1,4-dihydropyridazin-3-yl]methyl}phenyl)carbamate]
24 | < 0.1 | CCOC(=O)Nc1cccc(Cc2nn(-c3cnn(CC(F)(F)F)c3)ccc2=O)c1 [Example 111, ethyl [3-({4-oxo-1-[1-(2,2,2-trifluoroethyl)-1H-pyrazol-4-yl]-1,4-dihydropyridazin-3-yl}methyl)phenyl]carbamate]
25 | < 0.1 | CCCn1cc(-n2ccc(=O)c(Cc3cccc(NC(=O)OCC)c3)n2)cn1 [Example 112, ethyl (3-{[4-oxo-1-(1-propyl-1H-pyrazol-4-yl)-1,4-dihydropyridazin-3-yl]methyl}phenyl)carbamate]
